Laboratory results published in PubChem BioAssay (NCI).
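Method: 48-hour compound exposure of cells in 96-well plates, five concentrations, linear interpolation of endpoints. Here, GI50 denotes the concentration required for 50% inhibition of growth. Definition used: TGI = concentration required for complete inhibition of growth.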

Assays:
Test in all cases: NCI-60 cell line screen, 48 h
RPMI-8226 leukemia = system: RPMI-8226 leukemia
HL-60(TB) leukemia = system: HL-60(TB) leukemia
OVCAR-5 ovarian = system: OVCAR-5 ovarian
DU-145 prostate = system: DU-145 prostate
COLO 205 colon = system: COLO 205 colon
HT29 colon = system: HT29 colon
LOX IMVI melanoma = system: LOX IMVI melanoma
NCI-H460 lung = system: NCI-H460 lung
MALME-3M melanoma = system: MALME-3M melanoma
NCI-H226 lung = system: NCI-H226 lung

SMILES	TGI (RPMI-8226 leukemia)	TGI (HL-60(TB) leukemia)	TGI (OVCAR-5 ovarian)	TGI (DU-145 prostate)	TGI (COLO 205 colon)	TGI (HT29 colon)	TGI (LOX IMVI melanoma)	TGI (NCI-H460 lung)	TGI (MALME-3M melanoma)	TGI (NCI-H226 lung)	GI50 (RPMI-8226 leukemia)	GI50 (HL-60(TB) leukemia)	GI50 (OVCAR-5 ovarian)	GI50 (DU-145 prostate)	GI50 (COLO 205 colon)	GI50 (HT29 colon)	GI50 (LOX IMVI melanoma)	GI50 (NCI-H460 lung)	GI50 (MALME-3M melanoma)	GI50 (NCI-H226 lung)
CN[C@@H](C)[C@@H](O)c1ccccc1	> 100 µM	> 100 µM	> 100 µM	> 100 µM	> 100 µM	> 100 µM	> 100 µM	> 100 µM	> 100 µM	> 100 µM	–	–	–	–	–	–	–	–	–	–
CCCCCN(CCCCC)CC(C)(C)C(O)c1ccc(OC)c2ccccc12 (stereo not given)	32.1 µM	20.7 µM	31.4 µM	28.2 µM	40.6 µM	16.5 µM	4.99 µM	24.9 µM	29.9 µM	33.6 µM	–	–	–	–	–	–	–	–	–	–
Cc1cc(N2CCCC2)c([N+](=O)[O-])cc1[N+](=O)[O-]	> 100 µM	> 100 µM	–	> 100 µM	> 100 µM	> 100 µM	> 100 µM	> 100 µM	> 100 µM	> 100 µM	–	–	–	–	–	–	–	–	–	–
N=c1oc2ccccc2cc1-c1nc2ccccc2c(=O)[nH]1	> 100 µM	> 100 µM	> 100 µM	> 100 µM	> 100 µM	> 100 µM	> 100 µM	> 100 µM	> 100 µM	> 100 µM	–	–	–	–	–	–	–	–	–	–
COc1ccc2c(c1)c1nn(CCN3CCCCC3)c3ccc4c(=O)n(CCN(C)C)c(=O)n2c4c13	0.0862 µM	0.511 µM	0.126 µM	0.132 µM	–	0.0963 µM	0.178 µM	< 0.0216 µM	0.351 µM	0.243 µM	–	–	–	–	–	–	–	–	–	–
COc1ccc(N=C2C(=Nc3ccc(OC)cc3)N(c3ccc(N(C)C)cc3)C(=S)N2c2ccc(OC)cc2)cc1	> 100 µM	> 100 µM	> 100 µM	> 100 µM	> 100 µM	> 100 µM	> 100 µM	> 100 µM	> 100 µM	> 100 µM	–	–	–	–	–	–	–	–	–	–
CCOC(=O)C(NC(=O)CC)(Nc1ccc(F)c(Cl)c1)C(F)(F)F (stereo not given)	> 100 µM	> 100 µM	> 100 µM	> 100 µM	> 100 µM	> 100 µM	> 100 µM	> 100 µM	> 100 µM	> 100 µM	–	–	–	–	–	–	–	–	–	–
Cc1ccc(S(=O)(=O)n2ccc(-c3ccc4ccn(S(=O)(=O)c5ccc(C)cc5)c4c3)c2)cc1	> 100 µM	> 100 µM	> 100 µM	> 100 µM	> 100 µM	> 100 µM	> 100 µM	–	> 100 µM	> 100 µM	–	–	–	–	–	–	–	–	–	–
CCC(=O)/C(=C\I)c1ccccc1	> 100 µM	6.35 µM	3.48 µM	18.4 µM	3.59 µM	2.51 µM	2.96 µM	25.5 µM	3.23 µM	56.7 µM	–	–	–	–	–	–	–	–	–	–
C=Cc1nc(C#N)c(N)o1	> 100 µM	> 100 µM	> 100 µM	> 100 µM	> 100 µM	> 100 µM	> 100 µM	> 100 µM	> 100 µM	> 100 µM	–	–	–	–	–	–	–	–	–	–
N#CC[N+]1(Cc2ccccn2)CCCC1	> 100 µM	> 100 µM	> 100 µM	> 100 µM	> 100 µM	> 100 µM	> 100 µM	> 100 µM	> 100 µM	> 100 µM	–	–	–	–	–	–	–	–	–	–
CN(C)CC1CCC/C(=C\c2ccc(OC(=O)/C=C/c3ccc(Cl)c(Cl)c3)cc2)C1=O (stereo not given)	0.62 µM	3.45 µM	> 65.3 µM	> 93.3 µM	3.93 µM	4.68 µM	4.01 µM	23.2 µM	25.4 µM	4.56 µM	–	–	–	–	–	–	–	–	–	–
COc1ccc([C@]23CCN4COC[C@@H]([C@H]42)C2(CC3)OCC(C)(C)CO2)cc1OC	> 100 µM	> 100 µM	> 100 µM	> 100 µM	> 100 µM	> 100 µM	> 100 µM	> 100 µM	> 100 µM	> 100 µM	–	–	–	–	–	–	–	–	–	–
O=C(O)CNC(=O)c1ccc2cc(C(=O)N3CC(CCl)c4ccc([N+](=O)[O-])cc43)[nH]c2c1 (stereo not given)	> 100 µM	> 100 µM	> 100 µM	> 100 µM	> 100 µM	> 100 µM	> 100 µM	> 100 µM	–	> 100 µM	–	–	–	–	–	–	–	–	–	–
O=C(C(Cl)=C(N1CCCCC1)N1CCCCC1)C(Cl)Cl	> 100 µM	> 100 µM	–	> 100 µM	> 100 µM	> 100 µM	> 100 µM	> 100 µM	> 100 µM	> 100 µM	–	–	–	–	–	–	–	–	–	–
COc1cccc(C2SC(C)C(=O)N2CCc2cccs2)c1 (stereo not given)	5.39 µM	7.49 µM	20 µM	14.9 µM	2.82 µM	12 µM	11.6 µM	11 µM	8.09 µM	17.2 µM	1.88 µM	2.59 µM	4.05 µM	3.95 µM	1.47 µM	3.24 µM	2.48 µM	2.83 µM	2.19 µM	3.15 µM
